Experimental data as given in patent US7445931B2, “Compositions and methods for enrichment of neural stem cells using ceramide analogs” (Bresagen, Inc., priority 2002, dated 2008).

Legend:
[1] = system: differentiating ES-J1 cells; assay: Apoptosis (TUNEL staining, cell death) in differentiating mouse ES cells incubated with ceramide analogs; format: cell-based; conditions: for number of TUNEL stained cells: 15 hours with 75 μM S16 or S18, or 35 μM C2-ceramide
Experimental: In vitro neural differentiation of mouse ES cells (ES-J1, ES-D3) followed a serum deprivation protocol as described previously (Hancock, et al., 2000 Biochem. Biophys. Res. Commun., 271: 418-421). The differentiation stages are outlined in FIG. 2. Briefly, ES cells were grown on gamma-irradiated feeder fibroblasts for four days in Knockout DMEM/15% Knockout serum replacement, supplemented with ESGRO (LIF; Chemicon; Cat No. ESG1106) at a concentration of 10^3 units/ml medium. ES cells were then grown for another four days on gelatin-coated bacterial culture dishes without a fibroblast feeder layer, and were then grown for three days in Knockout DMEM/15% heat-inactivated ES qualified Fetal Bovine Serum, supplemented with 10^3 units LIF per ml of medium. Upon trypsinization, ES cells were transferred to bacterial culture dishes without gelatin, and embryoid body (EB) formation was induced for four days in Knockout DMEM/10% heat-inactivated ES qualified FBS without LIF (EB4 stage). On the fifth day, floating and loosely attached EBs were rinsed off and transferred to tissue culture dishes. The EBs were allowed to attach to the tissue culture dish surface by incubation for another 24 hours in Knockout DMEM with 10% heat-inactivated ES qualified fetal bovine serum. Neural differentiation due to serum deprivation was induced by cultivation of the EBs for three days in DME/12 (50/50), supplemented with 1×N2 (Invitrogen/Life Technologies; Cat No. 17502, dilution of 1:100) but without serum (EB8 stage). Serum-deprived EBs were then trypsinized, plated on poly-L-ornithine/laminin-coated tissue culture dishes and grown for four days in DMEM/F12 (50/50), supplemented with N2 and 10 ng/ml FGF-2, but without serum. This incubation period is referred to as neuroprogenitor (NP) stage due to commitment of neuroepithelial precursor cells to neuroprogenitor cells, and/or due to the selective expansion of neural progenitor cells in the FGF-2 containing serum-free medium. These cells have committed during the EB stages and were expanded during the NP stage. NPs grown for 48 hours upon replating of trypsinized EBs were referred to as the NP2 stage. On the fifth day of NP formation, the medium was changed to Neurobasal (Invitrogen/Life Technologies; Cat No. 21103-049), with 5% heat-inactivated FBS, and the cells were incubated for another seven days. During this time, NPs fully differentiate to glial cells and neurons. Cells cultured for 24 hours or 96 hours upon changing the medium were referred to as the D1 or D4 stage, respectively.
ES cells were cultured and differentiated to the EB4, EB8, NP2, or D4 stage following the protocol as described above. The ceramide analog S18 was dissolved in ethanol at a concentration of 100 mM and then added to the cells at a final concentration of 75 μM in medium. The cells at the EB8 stage were incubated for 48 hours in the presence of the ceramide analog and were then transplanted into mouse brains.
Differentiating ES cells were grown on cover slips and fixed with 4% paraformaldehyde in phosphate-buffered saline (PBS). Fixed cells were permeabilized with 0.5% Triton X-100 in PBS for 5 minutes at room temperature and unspecific binding sites were saturated by incubation with 3% ovalbumin in PBS for 1 hour at 37° C. The cover slips were then incubated with 5 μg/ml primary antibody (anti-ceramide clone 15B4 mouse IgM, Alexis; anti-PAR-4 rabbit IgG, Santa Cruz; anti-PCNA rabbit IgG, Santa Cruz; anti-nestin clone 401 rat IgG, BD Pharmingen) in 0.1% ovalbumin/PBS, followed by incubation with the appropriate fluorescence-labeled secondary antibody (5 μg/ml Alexa 546 conjugated anti-mouse IgG, Molecular Probes; Alexa 488 conjugated anti-rabbit IgG, Molecular Probes, Cy3 conjugated anti-mouse IgM, Jackson) for 2 hours at 37° C. The nuclei were stained by treatment with 2 μg/ml Hoechst 33258 in PBS for 30 minutes at room temperature. […]

EB8-derived cells = assay: Injection of ceramide analog treated EB8-derived cells into mouse brain, teratoma formation; format: in vivo, C57BL6 mice
Experimental: In vitro differentiating ES cells at stage EB8 were incubated for […] with 75 μM S18, or 35 μM N-acyl sphingosine or other ceramide analogs. Protein was isolated from cells incubated with S18 for 24 hours and from untreated cells, separated by SDS-PAGE, and the expression of Oct-4 was analyzed by immunoblotting.
Prior to injection into the mouse brain, ES cells were labeled with Vybrant-DiI (rhodamine fluorescence) for permanent vital staining and were mixed with India ink in order to track the injection channel and cell migration/tissue integration. 1×10^4 of the untreated ES-J1 cells were injected, while 2×10^4 of the S18-treated cells were injected in order to control for the percentage of cells lost to apoptosis. The ES cells were injected into the right brain hemisphere (bregma—1.5 mm, 1 mm lateral of central suture, 2.0 mm deep) of 8-10 day old C57BL6 mice using a Hamilton syringe. After 7-21 days, the mice were sacrificed, the brain isolated and fixed with 10% PBS-buffered formalin. The brains were Vibratome sectioned at 100 μm. The distribution of the injected cells was determined by fluorescence microscopy.

[2] = system: seeded sfEBMs derived from HESC colonies; assay: S18 treatment of seeded serum free embryoid bodies (sfEBMs), morphology and DAPI staining; format: cell-based, human
Source text: sfEBMs were derived from domed HESC colonies, grown in suspension for 24 days with one passage, and seeded to polyornithine/laminin coated chamber slides in DMEM/F12, supplemented with 1×N2 (Gibco), and 1% FCS.
Apoptosis in seeded serum free embryoid bodies was monitored by morphological observation of cell death and DAPI staining to reveal apoptotic nuclei. Apoptotic nuclei were observed as obviously fragmented and degenerating nuclei, with small punctuate patterns of DAPI staining. Rosette regions from essentially serum free embryoid bodies in suspension were passaged further in the same medium, either withdrawing S18 or culturing the embryoid bodies for an additional 4 to 8 days in the presence of S18. Rosette regions were then seeded onto polyornithine/laminin coated slides for analysis of proliferation and differentiation to neural lineages.

CCCCCCCC/C=C\CCCCCCCC(=O)NC(CO)CO [S18, N-(2-hydroxy-1-(hydroxymethyl)ethyl)-oleoylamide]
cell death ([1]; EB8 and NP2 stages, 20 hours with 75 μM S18): high degree of cell death
number of TUNEL stained cells ([1]; EB8 stage): 45±10%
number of TUNEL stained cells ([1]; NP2 stage): 70±10%
effect on differentiated neurons (cell death) ([1]; differentiated neurons, 20 hours with 75 μM S18): unaffected
teratoma formation (EB8-derived cells; EB8-derived cells treated with S18, injected into mouse brain, ten days after injection): did not show teratoma formation
migration and integration of injected cells (EB8-derived cells; S18-treated EB8-derived cells, Vybrant diI stained, host killed after 21 days): migrated to the hippocampus, and integrated into the host's brain tissue
time until effect was observed ([2]; 6, 8 or 10 μM S18): ≤ 24 h
effect on neural rosette structures ([2]; 6, 8 or 10 μM S18 for 36 hours): did not appear to be adversely affected
induction of apoptosis in the culture ([2]; 6, 8 or 10 μM S18 for 36 hours): induced apoptosis of a large proportion of the culture
cell death ([2]; 36 hours exposure to 6 μM S18): a high proportion of cells within these cultures have been killed
cell death ([2]; 36 hours exposure to 8 μM S18): a high degree of cell death is apparent
